Here are results for seven molecules from patent US12668785B2, “Combination treatment by administering a recombinant apyrase protein in conjunction with a P2Y12 inhibitor” (ASTRAZENECA AB, priority 2020, dated 2026).

Like-named read-outs stand apart in the source and are kept apart here. A value given as a limit tells only on which side of the number the result lay.

The conditions of data set [1]: cited from earlier work; for time to peak plasma concentration: after oral administration; for mean elimination half-life: described in the drug label.
Data set [2] deals with platelet aggregation. The settings on record: cited from earlier work; for time for platelet activity to return to baseline following discontinuance: after discontinuance.
Data set [3] concerns animal models. The settings on record: cited from earlier work.
The subject of data set [4] is pig animal model of myocardial infarction. The data set is described as follows: Cardiac damage assessed by CMR in pig model of myocardial infarction. The settings on record: ticagrelor 180 mg p.o. 2 h prior MI, then 90 mg/bid. The format is in vivo. The procedure: (§1) Regular chow-fed Landrace pigs (n=20; weight≈40 kg) were randomly (Excel randomized function) distributed into four groups to receive: • I) Oral placebo-control (2 h prior Myocardial Infarction (MI) induction n=5) • II) A loading dose of ticagrelor (180 mg; n=5; p.o 2 h prior MI induction) • III) A loading dose of ticagrelor (180 mg; n=5; p.o 2 h prior MI induction and 1 mg/kg AZD3366 i.v. 10 min before reperfusion) • IV) A loading dose of ticagrelor (180 mg; n=5; p.o 2 h prior MI induction and 3 mg/kg AZD3366 i.v. 10 min before reperfusion)
(§2) Thereafter, pigs underwent temporary (90 minutes) balloon occlusion of the mid-left anterior descending coronary artery (experimental MI) and then reperfused, essentially as described in Vilahur et al. 2016. Throughout the following 42 days, the pigs received daily oral maintenance dosing of placebo (group I) or ticagrelor (90 mg/bid, groups II to IV) and serial Cardiac Magnetic Resonance (CMR) assessments were performed at day 3 (early remodeling phase) and day 42 (late remodeling phase) post-MI.
(§3) On the day of MI-induction animals received buprenorphine (0.03 mg/kg) and cefazoline (25 mg/kg) as prophylaxis for pain and wound infection, respectively, and then anaesthetized by administrating an intramuscular injection of ketamine (30 mg/kg), xylazine (2.2 mg/kg), and atropine (0.05 mg/kg). Once tranquilized, animals were endotracheally intubated and anesthesia was maintained by isoflurane inhalation (2%). Prior to starting the MI-induction procedure, an infusion of amiodarone (300 mg) and lidocaine (150 mg) in 1.000 mL of saline (250 mL/h) was initiated as prophylaxis for malignant ventricular arrhythmias through a line placed in the marginal ear vein and a bolus of heparin (100 U/kg) was administered to prevent clot formation in the catheters. […] Complete coronary ischemia (verified by angiography) was maintained for 90 minutes. At the end of the ischemic period, the balloon was completely deflated and animals were allowed to recover. Electrocardiogramand hemodynamic parameters were continuously recorded throughout the entire procedure and the echocardiographic system (Phillips iE33) equipped with a S5-1 sector array transducer was used prior- and post-MI induction to document the initial worsening of left ventricular ejection fraction (LVEF, M-mode analysis using the parasternal long-axis view; Vilahur et al. 2016).
(§4) CMR studies were conducted serially in all animals at Day 3 (early remodeling phase) and Day 42 (late remodeling phase) post-MI. The studies were performed on a 3.0T-CMR system (AchievaVR, Philips, Amsterdam, The Netherlands) and CMR image acquisition was carried out by a CMR specialized technician blinded in terms of treatment. For CMR studies, animals were anaesthetized with an intramuscular injection of a cocktail composed of ketamine, xylazine, and atropine and maintained by a continuous intravenous infusion of propofol to ensure mechanical ventilation. Once the animals were positioned in a head-first supine position with a flexible phased-array surface coil placed over the chest, ECG gating was used to acquire still images of the heart. The following dedicated CMR sequences were acquired in all cases: ‘cine’ Balanced Steady-State Free Precession (bSSFP) imaging sequence to assess wall motion (WM) and cardiac function; T2-weighted short-tau inversion recovery (T2w-STIR) sequence to assess myocardial edema; early gadolinium enhancement to study microvascular obstruction (no reflow phenomenon); and late gadolinium enhancement (LGE) to assess the amount and extent of myocardial necrosis. All the CMR studies followed the same scheme. First, scout images [T1-turbo field echo (TFE) sequence] were obtained to localize the true axes of the heart and define a field of view involving the whole heart. […]

The test system is the same in data set [5]. The data set is described as follows: Global and regional cardiac function assessed by CMR in pig model of myocardial infarction. Type of data set: in vivo. The procedure:
as §1, §2, §3, §4

For data set [6], the system named is platelet aggregation. The data set is described as follows: ADP-induced whole blood platelet aggregation (Multiplate impedance aggregometer) after in vivo dosing. Set-up: species or system mouse. As to conditions: for PA (AU*min): blood at t = 80 min, ADP 6.5 μmol/L. Here is the method:
Immediately after the blood sampling, 175 μL whole blood was added to the Multiplate® (Roche Diagnostics GmbH, Mannheim, Germany) mini test cells and mixed with 175 μL 37° C. pre-heated saline (9 mg/mL, Fresenius Kabi AG, Bad Homburg, Germany).

The nature of data set [7]: Plasma concentration of ticagrelor by LC-MS/MS. Type of data set: in vivo. As to conditions: C57BI6, mouse, intravenous, t = 80 min, ticagrelor 1.2 mg/kg + 30 μg/kg*min. Here is the method:
The plasma concentration of ticagrelor was determined by means of a Liquid Chromatographic-Mass Spectrometric (LC-MS/MS) method.

Data set [8] relates to C57BI6 mice. The data set is described as follows: Mouse tail bleeding model (blood loss and bleeding time).
Experimental: (§5) C57BI6 mice were administered an intravenous bolus of AZD3366 or vehicle. In separate groups, mice were administered AZD3366 and ticagrelor or ticagrelor only as a bolus and continuous infusion of ticagrelor. The groups, doses and volumes of administration were as described in the following table:
(§6) Twenty min following dosing, bleeding was initiated by cutting 5 mm of the tip of the tail. The tail was rinsed with water and placed in a haemoglobin sensitive device. Light transmission through the blood and water mixture was recorded and converted to absorbance using the PharmLab software (V6.0, AstraZeneca R&D, Gothenburg, Sweden). Transmittance below 95% was defined as bleeding. Total blood loss, (area under the bleeding curve, t=20 min to t=80 min: cumulative blood loss vs time, absorbance*s, abs*s) and bleeding time (BT) were measured over 60 min from the start of tail cutting.
In data set [9] the test system is C57BI6 mice. As to conditions: mouse, in vivo, iv.
Experimental: as §5, §6
In data set [10] the test system is adenosine diphosphatase activity. As to conditions: Moeckel et al. (2014); cited from earlier work.
In data set [11] the test system is animal models. As to conditions: cited from earlier work. This is another data set of the same source.
The test system of data set [12] is animal models of ischemic stroke. As to conditions: Sun et al., 2011; Tan et al., 2014; cited from earlier work.
The conditions of data set [13]: in vivo; cited from earlier work.
The mark [14] stands for this setting: 3 Days Post-MI, ticagrelor 180 mg p.o. 2 h prior MI, then 90 mg/bid.
Where [15] appears, read: 42 Days Post-MI, ticagrelor 180 mg p.o. 2 h prior MI, then 90 mg/bid.
Where [16] appears, read: BSL (baseline), ticagrelor group.
Where [17] appears, read: ticagrelor-treated animals, p<0.001.
The mark [18] stands for this setting: preclinical models (Moekel et al. 2015).

With `COC(=O)[C@H](c1ccccc1Cl)N1CCc2sccc2C1` [Clopidogrel], the elimination half-life entry in [1] (following a single dose of 75 mg) is given as “approximately 6 hours”. Also, the “time to peak plasma concentrations of the active metabolite” value in [1] (following an oral dose, analyte: active metabolite) is 30 to 60 min. For the same molecule, the “time for platelet activity to return to baseline following discontinuance” value in the data set with platelet aggregation [2] is on record as “about 5 days”. Moreover, the “time at which dose-dependent platelet aggregation inhibition is observed” value in the data set on platelet aggregation [2] (following oral administration of a single dose) is given as “around 2 hours”. For the same molecule, the “cardioprotection / protective efficacy” value in the data set with animal models [3] (FIG. 6 of Moeckel et al. (2014)) is on record as “not cardioprotective”.
`CCCSc1nc(N[C@@H]2C[C@H]2c2ccc(F)c(F)c2)c2nnn([C@@H]3C[C@H](O)[C@@H](O)[C@H]3O)c2n1` [AR-C124910XX]: in data set [1], the “time to peak plasma concentration” value was around 2.5 h and the mean elimination half-life is 9 h. Further, in the data set with platelet aggregation [2] (in vivo), the “potency of active metabolite relative to ticagrelor” value is on record as “approximately equipotent”.
As for `CC(=O)Oc1cc2c(s1)CCN(C(C(=O)C1CC1)c1ccccc1F)C2` (stereo not shown) [Prasugrel], in [1] (stated after the active metabolite of prasugrel), the elimination half-life entry is “about 7.4 hours”.
For `CCCSc1nc(N[C@@H]2C[C@H]2c2ccc(F)c(F)c2)c2nnn([C@@H]3C[C@H](OCCO)[C@@H](O)[C@H]3O)c2n1` [Ticagrelor, (1S,2S,3R,5S)-3-[7-[[(1R,2S)-2-(3,4-difluorophenyl)cyclopropyl]amino]-5-(propylthio)-3H-1,2,3-triazolo[4,5-d]pyrimidin-3-yl]-5-(2-hydroxyethoxy)-1,2-cyclopentanediol], in data set [4] (3 Days Post-MI), the “Edema % of LV mass” value is 13.1 ± 0.9 %, the “Edema (gr)” value turned out to be 10.5 ± 0.8 gr, the “LV Mass” value was 81.3 ± 7.4 and the “Necrosis % of LV mass” value stood at 8.2 ± 1.2 %. Besides, the “Necrosis (gr)” value in [4] (3 Days Post-MI) was found to be 6.6 ± 1.0 gr. In data set [4] (42 Days Post-MI), the “LV Mass” value came out at 108.6 ± 6.9, the “Necrosis % of LV mass” value amounted to 4.3 ± 0.8 % and the “Necrosis (gr)” value is 4.7 ± 1.0 gr. In data set [5] (setting [14]), the LVEF % is on record as 50.3 ± 2.9% and the “Wall motion (mm)” value was 1.88 mm. In data set [5] (setting [15]), the LVEF % was 47.0 ± 4.4% and the “Wall motion (mm)” value was 2.55 mm. In data set [5] (setting [16]), the LVEF % is 53.7 ± 2.8% and the “Wall motion (mm)” value was determined as 2.66 mm. For the same molecule, in the data set with platelet aggregation [6] (ticagrelor 1.2 mg/kg + 30 μg/kg*min), the “PA (AU*min)” value came out at 2 ± 2 AU*min. For the same molecule, the concentration at 80 min in data set [7] amounted to 8 ± 0.2 µM. In addition, in data set [1], the “time to peak plasma concentration” value is given as “approximately 1.5 hours” and the mean elimination half-life was 7 h. Moreover, the “time maximum inhibition of platelet aggregation is maintained” value with platelet aggregation [2] (after a dose) is recorded as “more than 8 hours”. Further, the “time for platelet activity to return to baseline following discontinuance” value in the data set with platelet aggregation [2] is reported as 5 days. For the same molecule, the “BT (s) Median” value in the data set with C57BI6 mice [8] (bleeding time over 60 min, ticagrelor bolus 1.2 mg/kg + infusion 30 μg/kg*min) is 3433a, d s. The “Blood loss (abs*s) Median” value in the data set with C57BI6 mice [8] (tail transection at t = 20 min, recorded 60 min, ticagrelor bolus 1.2 mg/kg + infusion 30 μg/kg*min) was 1157a, b, c abs*s. Moreover, in the data set with C57BI6 mice [8] (setting [17]), the “BT increase as compared to vehicle” value was found to be 5.2 fold and the “Blood loss increase as compared to vehicle” value is 7.2 fold.
On to `CSCCNc1nc(SCCC(F)(F)F)nc2c1ncn2[C@@H]1O[C@H](COP(=O)(O)OP(=O)(O)C(Cl)(Cl)P(=O)(O)O)[C@@H](O)[C@H]1O` [Cangrelor], for which the “time to steady state plasma levels and platelet aggregation inhibition” value in data set [1] (from onset of infusion) is listed as at most 30 min. Moreover, in data set [1] (in vivo), the elimination half-life is 3 to 6 min and the plasma half-life result is on record as “less than 9 min”. For the same molecule, the “time for platelet responses to return to baseline” value in the data set on platelet aggregation [2] (after discontinuation) is at most 15 min. In the data set on platelet aggregation [2] (in vivo), the “time to maximal platelet inhibition” value is at most 15 min.
For `Clc1ccccc1CN1CCc2sccc2C1` [ticlopidine], the “time to peak plasma concentration” value in [1] was “around 2 hours”.

B1: AZD3366: recombinant optimised form of soluble CD39L3 apyrase (R67G, T69R, N-terminal EVLP), amino acid sequence SEQ ID NO: 2 (protein)
chain: EVLPPGLKYGIVLDAGSSGTRVYVYQWPAEKENNTGVVSQTFKCSVKGSGISSYGNNPQDVPRAFEECMQKVKGQVPSHLHGSTPIHLGATAGMRLLRLQNETAANEVLESIQSYFKSQPFDFRGAQIISGQEEGVYGWITANYLMGNFLEKNLWHMWVHPHGVETTGALDLGGASTQISFVAGEKMDLNTSDIMQVSLYGYVYTLYTHSFQCYGRNEAEKKFLAMLLQNSPTKNHLTNPCYPRDYSISFTMGHVFDSLCTVDQRPESYNPNDVITFEGTGDPSLCKEKVASIFDFKACHDQETCSFDGVYQPKIKGPFVAFAGFYYTASALNLSGSFSLDTFNSSTWNFCSQNWSQLPLLLPKFDEVYARSYCFSANYIYHLFVNGYKFTEETWPQIHFEKEVGNSSIAWSLGYMLSLTNQIPAESPLIRLPIEPPV
modifications: N-terminal EVLP
With B1, the “platelet aggregation (PA) inhibition” value with platelet aggregation [6] (AZD3366 1 and 3 mg/kg) is “complete platelet aggregation (PA) inhibition”. The “PA (AU*min)” value in the data set with platelet aggregation [6] (AZD3366 1.0 mg/kg) stood at 2 ± 2 AU*min. Besides, the “PA (AU*min)” value with platelet aggregation [6] (AZD3366 3.0 mg/kg) is given as 0 ± 0 AU*min. Further, in the data set with C57BI6 mice [9] (1 mg/kg), the “BT (s) Median” value is reported as 589 s and the “Blood loss (abs*s) Median” value was 157 abs*s. Besides, in the data set with C57BI6 mice [9] (3 mg/kg), the “BT (s) Median” value stood at 1438 s and the “Blood loss (abs*s) Median” value was found to be 342e abs*s. Moreover, the “adenosine diphosphatase activity compared with native apyrase” value in [10] is recorded as “four times higher”. In the data set with animal models [3] (Moeckel et al. (2014)), the bleeding time result is reported as “without an increase in bleeding time” and the infarction size result is listed as “decreased infarction size”. In the data set with animal models [11] (animal models), the “time until active after administration” value was at most 5 min and the “time until return to baseline” value was 3 to 4 weeks. Further, in the data set on animal models [11] (setting [18]), the “time activity is maintained” value is given as “more than 24 hours” and the “time to high levels of activity after administration” value is “within minutes”. In addition, the “reperfusion, re-occlusion and intracerebral bleeding” value in [12] was “enhance reperfusion, reduce re-occlusion and reduce intracerebral bleeding”. The “plasma half-life compared with native apyrase” value in data set [13] is 50 times.
